Earlier results in patent US20040228911A1, “Vinorelbine compositions and methods of use” (NeoPharm, Inc., priority 2001, published 2004).
Counter-ions that a name gives are not always drawn.

Legend:
[1] = distilled water
[2] = tested on: mitotic microtubules; conditions: intact tectal plates from mouse embryos
[3] = tested on: axonal microtubules; conditions: intact tectal plates from mouse embryos

aqueous solubility [1] | Compound | concentration inhibiting mitotic microtubule formation, inducing a blockade of cells at metaphase [2] | concentration producing depolymerization of axonal microtubules [3]
less than 1000 mg/mL | CCC1=C[C@@H]2CN(C1)Cc1c([nH]c3ccccc13)[C@@](C(=O)OC)(c1cc3c(cc1OC)N(C)[C@H]1[C@@](O)(C(=O)OC)[C@H](OC(C)=O)[C@]4(CC)C=CCN5CC[C@]31[C@@H]54)C2 [Vinorelbine tartrate, 3′,4′-didehydro-4′-deoxy-C-norvincaleukoblastine [R—(R,R)-2,3-dihydroxybutanedioate (1:2)(salt)]] | – | –
– | CC[C@]1(O)C[C@@H]2CN(CCc3c([nH]c4ccccc34)[C@@](C(=O)OC)(c3cc4c(cc3OC)N(C)[C@H]3[C@@](O)(C(=O)OC)[C@H](OC(C)=O)[C@]5(CC)C=CCN6CC[C@]43[C@@H]65)C2)C1 [vinblastine] | 2 µM | 30 µM
– | CC[C@]1(O)C[C@H]2CN(CCc3c([nH]c4ccccc34)[C@@](C(=O)OC)(c3cc4c(cc3OC)N(C=O)[C@H]3[C@@](O)(C(=O)OC)[C@H](OC(C)=O)[C@]5(CC)C=CCN6CC[C@]43[C@@H]65)C2)C1 [vincristine] | 2 µM | 5 µM
– | CCC1=C[C@@H]2CN(C1)Cc1c([nH]c3ccccc13)[C@@](C(=O)OC)(c1cc3c(cc1OC)N(C)[C@H]1[C@@](O)(C(=O)OC)[C@H](OC(C)=O)[C@]4(CC)C=CCN5CC[C@]31[C@@H]54)C2 [vinorelbine, 3′,4′-didehydro-4′-deoxy-C-norvincaleukoblastine [R—(R,R)-2,3-dihydroxybutanedioate (1:2)(salt)]] | 2 µM | 40 µM
